Series [1] deals with T1, mouse GnRH receptor (Mus musculus, UniProt Q01776).
T1 construct: expressed in transfected cells; host or cells: 293 cells
T1 sequence (Q01776 1-327): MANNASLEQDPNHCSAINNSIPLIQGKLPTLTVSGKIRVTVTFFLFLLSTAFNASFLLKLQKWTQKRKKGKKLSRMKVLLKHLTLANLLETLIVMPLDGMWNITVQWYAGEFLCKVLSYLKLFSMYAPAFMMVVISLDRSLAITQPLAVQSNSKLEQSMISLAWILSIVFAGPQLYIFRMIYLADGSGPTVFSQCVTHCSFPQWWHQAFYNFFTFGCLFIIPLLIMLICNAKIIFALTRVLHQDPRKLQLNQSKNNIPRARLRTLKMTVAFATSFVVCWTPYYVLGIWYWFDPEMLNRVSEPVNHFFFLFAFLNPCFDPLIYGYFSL
Description: Radioligand binding, 125I-GnRH-A, 293 cells expressing mouse GnRH receptors. An outline of the steps: (§1)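 Bound label captured on 0.1% polyethyleneimine-treated GF/C filters, washed three times with PBS, counted. IC50 derived; identical set-up for every species.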

For series [2], the target named is T2, rat GnRH receptor (Rattus norvegicus, UniProt P30969).
T2 sequence (P30969 1-327): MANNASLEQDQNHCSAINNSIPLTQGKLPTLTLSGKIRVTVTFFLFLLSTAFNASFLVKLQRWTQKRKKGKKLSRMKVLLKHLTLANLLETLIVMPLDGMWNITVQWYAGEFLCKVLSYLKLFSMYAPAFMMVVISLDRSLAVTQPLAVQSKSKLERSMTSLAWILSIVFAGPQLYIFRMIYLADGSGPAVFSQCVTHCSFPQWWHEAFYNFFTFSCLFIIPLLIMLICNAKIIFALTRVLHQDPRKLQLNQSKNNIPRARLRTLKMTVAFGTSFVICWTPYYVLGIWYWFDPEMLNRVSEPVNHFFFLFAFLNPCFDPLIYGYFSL
Briefly: Radioligand binding, 125I-GnRH-A, rat pituitary membranes. Details: membranes were prepared from rat pituitary; from tissue; host or cells: rat pituitary. The gist of the method:
as §1

Series [3] addresses T3, human GnRH receptor (Homo sapiens, UniProt P30968).
T3 construct: expressed in transfected cells; host or cells: HEK 293 (hGnRH-R/293, from Dr. Stuart Sealfon)
T3 sequence (P30968 1-328): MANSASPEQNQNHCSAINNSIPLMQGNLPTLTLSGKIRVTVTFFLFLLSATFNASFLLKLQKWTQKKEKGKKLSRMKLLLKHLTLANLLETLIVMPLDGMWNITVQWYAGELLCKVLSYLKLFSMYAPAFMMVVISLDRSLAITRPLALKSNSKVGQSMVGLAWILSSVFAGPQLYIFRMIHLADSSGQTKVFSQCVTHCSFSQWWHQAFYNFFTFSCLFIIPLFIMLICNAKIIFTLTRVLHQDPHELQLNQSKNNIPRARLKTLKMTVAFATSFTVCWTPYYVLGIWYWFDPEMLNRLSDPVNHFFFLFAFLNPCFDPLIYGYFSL
Description: Radioligand binding, 125I-GnRH-A displacement, membranes of HEK 293 cells with human GnRH receptor. The gist of the method: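 Bound tracer was separated by filtration through polyethyleneimine-soaked GF/C filters and counted by liquid scintillation. IC50 from curve fitting; other species were tested under the same conditions.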

The target of series [4] is T4, NPY Y1 (Homo sapiens, UniProt P25929).
T4 sequence (P25929 1-384): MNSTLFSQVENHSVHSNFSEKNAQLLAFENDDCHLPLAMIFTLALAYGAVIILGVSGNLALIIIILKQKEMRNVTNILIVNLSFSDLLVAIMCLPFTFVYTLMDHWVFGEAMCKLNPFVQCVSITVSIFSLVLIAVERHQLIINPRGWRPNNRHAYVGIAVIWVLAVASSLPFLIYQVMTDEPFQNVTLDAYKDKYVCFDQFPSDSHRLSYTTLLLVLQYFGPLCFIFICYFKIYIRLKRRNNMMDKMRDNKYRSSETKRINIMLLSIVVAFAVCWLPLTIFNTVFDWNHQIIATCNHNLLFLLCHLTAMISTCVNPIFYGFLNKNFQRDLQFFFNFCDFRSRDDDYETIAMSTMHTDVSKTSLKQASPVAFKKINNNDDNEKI
Description: Selectivity: NPY Y1.

The nature of series [5]: Pharmacokinetic studies / bioavailability in rats. The class given is in vivo, rat. The note with it: rat, plasma, 10 mg/kg.
Setting [6] is: means ± SE of at least three experiments performed in duplicate, read-out: Mouse IC50.
Setting [7] is: means ± SE of at least three experiments performed in duplicate, read-out: Rat IC50.
The mark [8] stands for this setting: means ± SE of at least three experiments performed in duplicate, read-out: Human IC50.
[9] abbreviates: second value marked * (mostly in parentheses), asterisk not explained, read-out: hGnRH IC50, value marked *.
Setting [10] is: male, po, rat male, p.o. 10 mg/kg, vehicle per footnote.

The IC50 is the concentration that gives 50% inhibition. The half-life is the time needed for the level to fall by half in the phase considered. Low values mean rapid decline, high ones slow decline. By Cmax is commonly meant the peak of the concentration-time curve. By Tmax is commonly meant the time at which the peak concentration occurs.

Structures are written as SMILES. Like-named read-outs stand apart in the source and are kept apart here. Where a SMILES comes first, the peptide text is derived from it. [ ]: non-standard residue; d: D form. The star is where a group is joined. dPhe(4-Cl) = N[C@H](Cc1ccc(Cl)cc1)C(=O)O; d2Nal = N[C@H](Cc1ccc2ccccc2c1)C(=O)O; Lys(iPr) = CC(C)NCCCC[C@H](N)C(=O)O; d3Pal = N[C@H](Cc1cccnc1)C(=O)O; Nicotinoyl = O=C(c1cccnc1)*

Turning to `CC(=O)N[C@H](Cc1ccc2ccccc2c1)C(=O)N[C@H](Cc1ccc(Cl)cc1)C(=O)N[C@H](Cc1cccnc1)C(=O)N[C@@H](CO)C(=O)N[C@@H](CCCCNC(=O)c1cccnc1)C(=O)N[C@H](CCCCNC(=O)c1cccnc1)C(=O)N[C@@H](CC(C)C)C(=O)N[C@@H](CCCCNC(C)C)C(=O)N1CCC[C@H]1C(=O)N[C@H](C)C(N)=O` [Antide, reference compound] (Ac-[d2Nal][dPhe(4-Cl)][d3Pal]SK(Nicotinoyl)[dK](Nicotinoyl)L[Lys(iPr)]P[dA]-NH2), the IC50 in series [1] (setting [6]) was 0.25 ± 0.05 nM; in series [2] (setting [7]) it was 0.19 ± 0.04 nM; in series [3] (setting [8]), 0.67 ± 0.09 nM.

As to `Cc1cc2c(cc1Cc1ccc(C(=O)NC[C@H]3CC[C@H](CNC(=N)N)CC3)o1)C(C)(C)CCC2(C)C` [Compound 10], the IC50 in series [1] (setting [6]) turned out to be 1400 ± 440 nM; in series [1] (read-out: mGnRH IC50), 1400 nM; in series [2] (setting [7]), 390 ± 10 nM; in series [2] (read-out: rGnRH IC50) it was 390 nM; in series [3] (setting [8]) it was 130 ± 24 nM; in series [3] (read-out: hGnRH IC50), 130 nM. Also, the concentration for half-maximal inhibition (IC50) stood at 20 nM in series [3] (setting [9]) and 9.7 µM in series [4].

On to `Cc1cc2c(cc1Cc1ccc(C(=O)NCC3CCCC(CNc4nccc(NCC5CCCO5)n4)C3)o1)C(C)(C)CCC2(C)C` (stereo not drawn) [Compound 11], for which the IC50 was found to be 50 ± 10 nM in series [1] (setting [6]); 50 nM in series [1] (read-out: mGnRH IC50); 9 ± 0.3 nM in series [2] (setting [7]); 9 nM in series [2] (read-out: rGnRH IC50); 190 ± 40 nM in series [3] (setting [8]); 190 nM in series [3] (read-out: hGnRH IC50). In addition, the figures for the IC50 in series [3] (setting [9]) and in series [4] were 80 nM and 2.55 µM, respectively. The molecule also had a half-life in series [5] (male, iv, rat male) of 180 min. Also, the Cmax in series [5] (setting [10]) stood at 150 nM. The Tmax in series [5] (setting [10]) was 1.5 to 3.5 h. In series [5] (iv, four hours after i.v. injection), this molecule came in with a concentration at 4 h of 100 to 200 nM.

On to `Cc1cc2c(cc1Cc1ccc(C(=O)NC[C@H]3CC[C@H](C(=O)O)CC3)o1)C(C)(C)CCC2(C)C` [Compound 12], for which the IC50 stood at 7130 ± 1350 nM in series [1] (setting [6]); 7130 nM in series [1] (read-out: mGnRH IC50); 3080 ± 630 nM in series [2] (setting [7]); 3080 nM in series [2] (read-out: rGnRH IC50); 230 ± 37 nM in series [3] (setting [8]); 230 nM in series [3] (read-out: hGnRH IC50). Also, the figures for the IC50 in series [3] (setting [9]) and in series [4] were 210 nM and greater than 10 µM, respectively. Further, the half-life in series [5] (male, iv, rat male) turned out to be 36 min.

In the case of `Cc1cc2c(cc1Cc1ccc(C(=O)NCc3cccc(CNc4nccc(NCC5CCCO5)n4)c3)o1)C(C)(C)CCC2(C)C` (stereo not drawn) [Compound 70], the results for the IC50 in series [1] (read-out: mGnRH IC50), in series [2] (read-out: rGnRH IC50) and in series [3] (read-out: hGnRH IC50) were 6 nM, 6 nM and 50 nM, respectively. The molecule further yielded a half-life in series [5] (male, iv, rat male) of 58 min.

The values above are taken from patent publication US7101878B1 (Agouron Pharmaceuticals, Inc., priority 1998, dated 2006).
